Values quoted from earlier work, collected in patent US12453351B2, “Herbicide compatibility improvement” (Monsanto Technology LLC, priority 2005, dated 2025).

Conditions: at 25° C.

In the case of `O=C(O)CNCP(=O)(O)O` [Glyphosate], the Solubility in water is given as 1.16 % by weight.
